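How tested: cells in 96-well plates exposed to compound for 48 hours at five concentrations. Here, GI50 denotes the concentration required for 50% inhibition of growth. TGI marks complete inhibition of growth.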
Columns and labels:
Assay in all cases: growth of human tumour cells (NCI), 48 h
M14 melanoma = test system: M14 melanoma
OVCAR-3 ovarian = test system: OVCAR-3 ovarian
SW-620 colon = test system: SW-620 colon
NCI-H226 lung = test system: NCI-H226 lung
TK-10 renal = test system: TK-10 renal
HCT-15 colon = test system: HCT-15 colon
SF-295 CNS = test system: SF-295 CNS
CCRF-CEM leukemia = test system: CCRF-CEM leukemia
SK-OV-3 ovarian = test system: SK-OV-3 ovarian
OVCAR-5 ovarian = test system: OVCAR-5 ovarian
LOX IMVI melanoma = test system: LOX IMVI melanoma

SMILES | TGI (M14 melanoma) | TGI (OVCAR-3 ovarian) | TGI (SW-620 colon) | TGI (NCI-H226 lung) | TGI (TK-10 renal) | TGI (HCT-15 colon) | TGI (SF-295 CNS) | TGI (CCRF-CEM leukemia) | TGI (SK-OV-3 ovarian) | TGI (OVCAR-5 ovarian) | TGI (LOX IMVI melanoma) | GI50 (M14 melanoma) | GI50 (OVCAR-3 ovarian) | GI50 (NCI-H226 lung) | GI50 (TK-10 renal) | GI50 (SF-295 CNS) | GI50 (SK-OV-3 ovarian) | GI50 (OVCAR-5 ovarian) | GI50 (LOX IMVI melanoma)
CC(C)c1cc(CN(C)C)c(O)c(C(C)(C)C)c1 | 78.5 µM | 31.2 µM | 36.4 µM | 42.5 µM | > 100 µM | 63.3 µM | 37.4 µM | 30 µM | > 100 µM | > 100 µM | 32.5 µM | – | – | – | – | – | – | – | –
C=CC[N+]12CN3CN(CN(C3)C1)C2 | 82.3 µM | > 100 µM | > 100 µM | – | 45.4 µM | 50.9 µM | > 100 µM | 30.3 µM | > 100 µM | 95.5 µM | 83 µM | – | – | – | – | – | – | – | –
COc1ccc(C[C@H](N)C(=O)NC2C(CO)OC(n3cnc4c(N(C)C)ncnc43)C2O)cc1 (some centres undefined) | 1.77 µM | – | – | 0.446 µM | – | 11.9 µM | 1.57 µM | 0.845 µM | – | 42.3 µM | 0.288 µM | – | – | – | – | – | – | – | –
O=C1c2ccccc2C(=O)c2c(Nc3ccc4c5c(cccc35)C(=O)c3ccccc3-4)cccc21 | > 100 µM | > 100 µM | > 100 µM | > 100 µM | > 100 µM | > 100 µM | > 100 µM | – | – | > 100 µM | > 100 µM | – | – | – | – | – | – | – | –
CC(C)(C)N1C(C(=O)c2ccccc2)C1c1ccccc1 (centres undefined) | > 100 µM | > 100 µM | > 100 µM | > 100 µM | > 100 µM | > 100 µM | – | > 100 µM | > 100 µM | – | > 100 µM | – | – | – | – | – | – | – | –
O=c1ccc2nc(-c3ccccc3)nn(-c3ccccn3)c-2c1 | 44.6 µM | 3.15 µM | – | 57.5 µM | 3.14 µM | – | > 100 µM | – | 25 µM | 54.9 µM | 25.3 µM | 16.7 µM | 1.69 µM | 20.4 µM | 1.71 µM | 31 µM | 10.3 µM | 21.9 µM | 4.03 µM
N#CN=C(N)NC(=O)/C=C/C=C/c1ccc(Cl)cc1 | > 100 µM | > 100 µM | > 100 µM | > 100 µM | > 100 µM | > 100 µM | > 100 µM | > 100 µM | > 100 µM | > 100 µM | > 100 µM | – | – | – | – | – | – | – | –
Nc1nc(N)c2c(n1)NC(=O)c1c(c3ccccc3n1Cc1ccc(Cl)cc1)C2 | > 100 µM | 56.5 µM | > 100 µM | > 100 µM | 46.9 µM | 35.6 µM | 84.7 µM | 42.8 µM | 45.4 µM | > 100 µM | 56.4 µM | – | – | – | – | – | – | – | –

From PubChem BioAssay (NCI)
